# Values quoted from earlier work as cited in patent US7803755B2, “Molecules for the treatment and prevention of fungal diseases” (priority 2006, dated 2010).
# Counter-ions that a name gives are not always drawn.
# How the values were obtained:
# onychomycosis = settings: after using ciclopirox lacquer
# [1] = test system: Trichophyton rubrum, Trichophyton mentagrophytes, Trichophyton tonsurans, Epidermophyton floccosum, Microsporum canis, Microsporum audouini, and Microsporum …; settings: wide spectrum of organisms
# [2] = test system: Candida species, including Candida albicans
Compound,patients rating their onychomycosis as improved (onychomycosis) [%],antifungal activity in vitro [1],antifungal activity in vitro [2]
Cc1cc(C2CCCCC2)n(O)c(=O)c1 [Ciclopirox],90,–,–
"CN(C/C=C/c1ccccc1)Cc1cccc2ccccc12 [Naftifine hydrochloride, naftifine hydrochloride]",–,fungicidal activity,fungistatic activity
